In ChEMBL document CHEMBL1201862, “PubChem BioAssay data set” (2004):
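These data come from cells grown in 96-well plates and exposed to compound for 48 hours at five concentrations. GI50: concentration for 50% inhibition of growth.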 The source made the active and inactive calls. No stated cut-off is given here; in the data, active = GI50 up to about 1.1 µM and inactive = higher.

What was measured:
Assay in all cases: growth of human tumour cells (NCI), 48 h
[1] = test system: DU-145
[2] = test system: NCI-H23
[3] = test system: IGROV-1
[4] = test system: SK-MEL-2
[5] = test system: HL-60
[6] = test system: NCI-H226
[7] = test system: LOX IMVI
[8] = test system: T47D
[9] = test system: NCI/ADR-RES
[10] = test system: NCI-H522
[11] = test system: MOLT-4
[12] = test system: KM12
[13] = test system: UACC-257
[14] = test system: K562
[15] = test system: UACC-62
[16] = test system: M14
[17] = test system: BT-549
[18] = test system: OVCAR-4
[19] = test system: MDA-N

SMILES | GI50 [1] | GI50 [2] | GI50 [3] | GI50 [4] | GI50 [5] | GI50 [6] | GI50 [7] | GI50 [8] | GI50 [9] | GI50 [10] | GI50 [11] | GI50 [12] | GI50 [13] | GI50 [14] | GI50 [15] | GI50 [16] | GI50 [17] | GI50 [18] | GI50 [19]
N#Cc1cc(-c2nc3cc(F)ccc3s2)ccc1N | 53.1 µM (inactive) | < 0.01 µM (active) | < 0.0112 µM (active) | 29.3 µM (inactive) | > 100 µM (inactive) | 3.34 µM (inactive) | > 100 µM (inactive) | < 0.012 µM (active) | > 61.2 µM (inactive) | > 53.1 µM (inactive) | > 100 µM (inactive) | 0.059 µM (active) | > 100 µM (inactive) | > 100 µM (inactive) | 14.9 µM (inactive) | 33.6 µM (inactive) | 2.3 µM (inactive) | 0.718 µM (active) | 
COC1OC(C)C(NC(=O)OCC(Cl)(Cl)Cl)C2OC(C)(C)OC12 (stereo unspecified) | > 100 µM (inactive) | > 100 µM (inactive) | > 100 µM (inactive) |  | > 100 µM (inactive) | > 100 µM (inactive) | > 10 µM (inactive) | > 100 µM (inactive) | > 100 µM (inactive) | > 100 µM (inactive) | > 100 µM (inactive) | > 100 µM (inactive) | > 100 µM (inactive) | > 100 µM (inactive) | > 100 µM (inactive) | > 100 µM (inactive) | > 100 µM (inactive) | > 100 µM (inactive) | 
CC(=O)Nc1ccc(/C=C2/NC(=S)N(/C=C3\C(=O)Oc4ccccc4C3=O)C2=O)cc1 | 94 µM (inactive) | 67.3 µM (inactive) | 49 µM (inactive) | 40.9 µM (inactive) | 40.5 µM (inactive) | > 100 µM (inactive) | > 100 µM (inactive) | 64.3 µM (inactive) | 33.7 µM (inactive) | 36.7 µM (inactive) | 48 µM (inactive) | 45.2 µM (inactive) | > 100 µM (inactive) | 49.4 µM (inactive) | 77.3 µM (inactive) | 58.3 µM (inactive) |  | 51.1 µM (inactive) | 52 µM (inactive)
CCSc1cc2c(cc1O)CC[C@@H]1[C@@H]2CC[C@]2(C)[C@@H](O)CC[C@@H]12 | 24.5 µM (inactive) | 18.8 µM (inactive) | 11.7 µM (inactive) | 16.3 µM (inactive) | 4.54 µM (inactive) | 15 µM (inactive) | 10.8 µM (inactive) | > 10 µM (inactive) | 5.18 µM (inactive) | 6.61 µM (inactive) | 4.98 µM (inactive) | 8.11 µM (inactive) | 15.1 µM (inactive) | 4.12 µM (inactive) | 11.2 µM (inactive) |  |  | 18.3 µM (inactive) | 2.67 µM (inactive)
N#CCSc1c(-c2ccccc2)c(=O)n(-c2ccccc2)c(=S)n1-c1ccccc1 | > 10 µM (inactive) | > 100 µM (inactive) | > 100 µM (inactive) | > 100 µM (inactive) | > 100 µM (inactive) | > 100 µM (inactive) | > 100 µM (inactive) | > 100 µM (inactive) | > 100 µM (inactive) | > 100 µM (inactive) | > 100 µM (inactive) | > 100 µM (inactive) | > 100 µM (inactive) | > 100 µM (inactive) | 32.9 µM (inactive) | > 100 µM (inactive) |  | > 100 µM (inactive) | 95.3 µM (inactive)
CS(=O)(=O)O[C@H]1CN2C[C@@H](O)[C@@H](O)[C@H]2[C@H]1CO.[B] | > 100 µM (inactive) | > 100 µM (inactive) | > 100 µM (inactive) | > 100 µM (inactive) |  | > 100 µM (inactive) | > 100 µM (inactive) | > 100 µM (inactive) | > 100 µM (inactive) |  | > 100 µM (inactive) | > 100 µM (inactive) | > 100 µM (inactive) | > 100 µM (inactive) | > 100 µM (inactive) | > 100 µM (inactive) | > 100 µM (inactive) | > 100 µM (inactive) | 
COC(=O)[C@@H]1CN(C(C)=O)C(=O)N1 | > 100 µM (inactive) | > 100 µM (inactive) | > 100 µM (inactive) | > 100 µM (inactive) | > 100 µM (inactive) | > 100 µM (inactive) | > 100 µM (inactive) | 43.9 µM (inactive) | > 100 µM (inactive) | > 100 µM (inactive) | > 100 µM (inactive) | > 100 µM (inactive) | > 100 µM (inactive) | > 100 µM (inactive) | > 100 µM (inactive) | > 100 µM (inactive) |  | > 100 µM (inactive) | > 100 µM (inactive)
CCC1(O)CC(OC2CC(N(C)C)C(OC3CC(O)C(OC4OC(C)C(=O)C=C4N)C(C)O3)C(C)O2)c2c(O)c3c(c(O)c2C1C(=O)OC)C(=O)c1cccc(O)c1C3=O (stereo unspecified) | 0.00686 µM (active) | 0.0189 µM (active) | 0.00354 µM (active) | 0.00927 µM (active) | 0.00154 µM (active) | 0.0139 µM (active) | 0.0115 µM (active) | 0.0118 µM (active) | 0.0916 µM (active) | 0.0121 µM (active) | 0.00231 µM (active) | 0.0032 µM (active) | 0.00836 µM (active) | 0.000196 µM (active) | 0.0106 µM (active) | 0.01 µM (active) |  | 0.01 µM (active) | 0.0048 µM (active)
O=c1c2ccccc2[nH]c2c(Cl)cc(Cl)c(N3CCCCC3)c12 |  | 24.1 µM (inactive) | 18.6 µM (inactive) | 21.7 µM (inactive) | 37.5 µM (inactive) | 23.7 µM (inactive) | 41.6 µM (inactive) | 50.6 µM (inactive) | 25.6 µM (inactive) | 22.1 µM (inactive) | 26.4 µM (inactive) | 19.1 µM (inactive) | 39.1 µM (inactive) | > 10 µM (inactive) | > 10 µM (inactive) | 27.3 µM (inactive) | 43.5 µM (inactive) | 71.6 µM (inactive) | 24.3 µM (inactive)
C[C@@H]1OC(=O)C[C@H]2CC(=O)N(CCC3CN(S(=O)(=O)C(F)(F)F)c4ccc(Cc5ccc6c(c5)C(CCN5C[C@H]7[C@@H](CC(=O)O[C@H]7C)CC5=O)CN6S(=O)(=O)C(F)(F)F)cc43)C[C@@H]21 (stereo partly specified) | > 100 µM (inactive) | > 100 µM (inactive) |  | > 100 µM (inactive) |  | > 100 µM (inactive) | > 100 µM (inactive) | > 100 µM (inactive) | > 100 µM (inactive) |  | > 100 µM (inactive) | > 100 µM (inactive) | > 100 µM (inactive) | > 100 µM (inactive) | > 100 µM (inactive) | > 100 µM (inactive) | > 100 µM (inactive) | > 100 µM (inactive) | 
Cn1[nH]nn/c1=N\N=C\c1ccccc1 | > 10 µM (inactive) | > 10 µM (inactive) | > 10 µM (inactive) | > 10 µM (inactive) | > 10 µM (inactive) | > 10 µM (inactive) | > 10 µM (inactive) | > 10 µM (inactive) | > 10 µM (inactive) | > 10 µM (inactive) | > 10 µM (inactive) | > 10 µM (inactive) | > 10 µM (inactive) | > 10 µM (inactive) | > 10 µM (inactive) | > 10 µM (inactive) |  | > 10 µM (inactive) | > 10 µM (inactive)
